Tests used:
Assay type in all cases: cell-based, rat
caspase-3 = assay: Caspase-3 activity (colorimetric, Ac-DEVD-pNA cleavage) after hypoxia; conditions: hypoxia 24 hours; 100 μM of agmatine or 50 μM of Z-VAD-FMK
Method: The RGC-5 cell line, which is a RGC line developed from post-natal Sprague-Dawley rats, was grown in modified Dulbecco's Modified Eagle's Medium (DMEM; Gibco) supplemented with 10% of heat inactivated fetal bovine serum (Gibco) and 100 U/mL of penicillin and 100 μg/mL of streptomycin (Gibco). The cells were passaged every 2 to 3 days, and the cultures incubated at 37° C. in 5% of CO2 and air. […] For all experiments, cells were used at an 80% confluence. Cultures were transferred into a closed hypoxic chamber (Form a Scientific Co.) in which oxygen level (5% of O2, 5% of CO2, 90% of N2) and temperature (37° C.) were controlled. After washing twice with deoxygenated serum-free DMEM, cells were maintained in the hypoxic chamber. Control cells were not exposed to hypoxia. Agmatine or BDNF were added to the culture medium at the start of injury as indicated. Caspase-3 activity was measured using the CaspACE™ colorimetric assay system (Promega, Cat no. G7220) according to the manufacturer's instructions. Briefly, cells were harvested and resuspended in cell lysis buffer (10^8 cells/mL). […] After incubating at 37° C. for 4 hours, absorbance was measured using a microplate reader at 405 nm. Absorbance of each sample was determined by subtraction of the mean absorbance of the blank from that of each sample.

RGC-5 [1] = assay: Hoechst 33342 and PI staining after TNF-α
Method: (§1) The RGC-5 cell line, which is an RGC line developed from post-natal Sprague-Dawley rats, was grown in modified DMEM (Gibco) supplemented with 10% of heat inactivated fetal bovine serum (Gibco) and 100 U/mL of penicillin and 100 μg/mL of streptomycin (Gibco). The cells were passaged every 2 to 3 days and incubated at 37° C. in 5% of CO2 and air. At cultivation, the cells had the same morphology. For all experiments, cells were used at 80% of confluence.
(§2) After washing twice with PBS, cells were cultured in serum-free DMEM and treated with either 10 or 50 ng/mL of recombinant rat TNF-α (Chemicon) for up to 48 hours. The control cells were not exposed to TNF-α. 100 μM of agmatine was added to the culture medium at the start of injury as indicated.
Apoptotic or necrotic cell death was characterized by double staining cells with Hoechst 33342 and PI. Cells were stained with 10 μg/mL of Hoechst 33342 and 10 μg/mL of PI at 37° C. for 30 minutes. After being washed twice with PBS, cells were imaged with a digital camera attached to a fluorescence microscope.

RGC-5 [2] = assay: Annexin-V assay (flow cytometry), TNF-α-induced apoptosis; conditions: 50 ng/mL of TNF-α
Method: as §1, §2
The percentage of cells actively undergoing apoptosis was determined by flow cytometry using the Annexin V-FITC Apoptosis Detection Kit (BD Biosciences, Cat no. 556547) according to the manufacturer's instructions. Briefly, cells were harvested and resuspended in binding buffer (10^6 cells/mL). 10^5 cells were mixed with 5 μL of annexin V-FITC and 5 μL of PI. After incubating at room temperature for 15 minutes in the dark, analysis was performed by flow cytometry.

## N=C(N)NCCCCN [agmatine]
caspase-3
  hypoxia-induced caspase-3 activity: equally suppressed
RGC-5 [1]; 50 ng/mL of TNF-α for 48 hours, 100 μM of agmatine
  RGC loss (Hoechst-positive / PI-positive cells): RGC loss was prevented
RGC-5 [1]; only 100 μM of agmatine, no TNF-α, 48 hours
  effect on culture (Hoechst-positive / PI-labeled cells): did not have a significant effect
RGC-5 [2]; 12 hour exposure, agmatine 100 μM
  proportion of apoptotic cells: no significant difference
RGC-5 [2]; 24 hours of exposure, 100 μM of agmatine
  proportion of apoptotic cells: significant decrease in apoptotic cells
